The source of these data is patent US20240261418A1, “SOS1 DEGRADING AGENT AND PREPARATION METHOD THEREFOR AND APPLICATION THEREOF” (SHANGHAI LEADINGTAC PHARMACEUTICAL CO. LTD., priority 2021, published 2024).

Some results are limits rather than exact numbers.

The test addresses T1, SOS1 protein (Homo sapiens, UniProt Q07889).
T1 sequence (Q07889 1-1333): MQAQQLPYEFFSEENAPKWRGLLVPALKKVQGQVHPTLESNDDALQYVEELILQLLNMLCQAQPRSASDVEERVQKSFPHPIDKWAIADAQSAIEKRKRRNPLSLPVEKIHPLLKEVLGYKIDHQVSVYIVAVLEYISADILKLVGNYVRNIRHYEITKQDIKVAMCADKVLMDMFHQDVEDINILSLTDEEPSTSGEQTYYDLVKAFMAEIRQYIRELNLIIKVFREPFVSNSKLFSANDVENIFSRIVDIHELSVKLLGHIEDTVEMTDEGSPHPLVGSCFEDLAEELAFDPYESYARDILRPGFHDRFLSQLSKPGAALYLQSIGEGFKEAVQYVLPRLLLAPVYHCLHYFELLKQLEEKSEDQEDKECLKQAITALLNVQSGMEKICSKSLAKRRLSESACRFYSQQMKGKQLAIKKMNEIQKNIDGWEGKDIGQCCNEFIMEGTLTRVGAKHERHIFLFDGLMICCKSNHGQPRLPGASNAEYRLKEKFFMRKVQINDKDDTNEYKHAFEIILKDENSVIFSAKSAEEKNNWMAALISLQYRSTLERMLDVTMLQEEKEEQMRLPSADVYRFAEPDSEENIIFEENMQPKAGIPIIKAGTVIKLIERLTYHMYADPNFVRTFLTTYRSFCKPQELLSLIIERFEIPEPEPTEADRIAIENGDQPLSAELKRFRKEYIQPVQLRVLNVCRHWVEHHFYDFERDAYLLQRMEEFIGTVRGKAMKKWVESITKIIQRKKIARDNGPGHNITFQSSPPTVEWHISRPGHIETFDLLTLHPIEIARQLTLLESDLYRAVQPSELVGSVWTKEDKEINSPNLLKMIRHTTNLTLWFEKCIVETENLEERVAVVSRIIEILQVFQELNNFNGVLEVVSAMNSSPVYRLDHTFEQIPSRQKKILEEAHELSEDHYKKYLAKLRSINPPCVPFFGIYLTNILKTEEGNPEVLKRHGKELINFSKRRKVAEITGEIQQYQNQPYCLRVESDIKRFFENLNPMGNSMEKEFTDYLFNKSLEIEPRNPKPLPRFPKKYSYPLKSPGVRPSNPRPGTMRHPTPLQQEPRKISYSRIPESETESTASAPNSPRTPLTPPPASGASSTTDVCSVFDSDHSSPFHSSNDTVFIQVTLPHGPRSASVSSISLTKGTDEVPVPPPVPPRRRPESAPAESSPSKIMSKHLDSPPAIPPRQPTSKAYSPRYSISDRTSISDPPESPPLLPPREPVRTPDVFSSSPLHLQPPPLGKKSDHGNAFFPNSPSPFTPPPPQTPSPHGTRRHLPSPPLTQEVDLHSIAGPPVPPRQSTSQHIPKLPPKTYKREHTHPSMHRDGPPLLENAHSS
Put plainly: SOS1 degradation assay (Western blot) in SW-620 cells. In kind it is cell-based. Particulars: SW-620 (KRAS G12V), 24 h; for DC50: read-out: SW620 (G12V) DC50; for Dmax: read-out: SW620 (G12V) Dmax. Set-up: host or cells: NCI-H358, A-427, SW-620, DLD-1 (human cancer cell lines). The procedure: Test Example 2: SOS1 Degradation Assay
The degradation of SOS1 by the compounds was investigated on KRAS G12C mutant human non-small cell lung cancer cells NCI-H358 (ATCC or Stem Cell Bank, Chinese Academy of Sciences), KRAS G12D mutant human lung cancer cells A-427 (ATCC), KRAS G12V mutant human colorectal adenocarcinoma cells SW-620 (ATCC), and KRAS G13D mutant human colorectal adenocarcinoma epithelial cells DLD-1 (ATCC). The specific procedures were as follows:
0.95 mL of cells were seeded into each well of a 24-well cell culture plate to achieve a cell density of 5×10^5 cells/well; the cell plate was incubated in an incubator at 37° C. with 5% CO2 overnight. Then 50 μL of the compound solution after dilution was added to each of the wells with the corresponding cells, so that the final concentration of the compound was in a range of 0.03-3000 nM. The final concentration of DMSO was 0.25%.
After dosing, the cell plate was incubated in an incubator at 37° C. with 5% CO2 for 24 h. The cell culture medium in the 24-well plate was removed, and the plate was washed twice with 1×PBS. 180 μL of RIPA (strong) lysis buffer (Beyotime, P0013B) supplemented with 1 mM phenylmethylsulfonyl fluoride, a protease inhibitor mixture (Beyotime, P1008), and a protease phosphatase inhibitor mixture (Beyotime, P1045) was added to lyse adherent NCI-H358 cells at the bottom of the cell culture plate. After the plate was left to stand on ice for 30 min, the protein lysate in each well was transferred to a 1.5 mL centrifuge tube and centrifuged at 15000 g for 20 min at 4° C. […] The concentration of total protein in the cell lysate supernatant was determined using the BCA Protein Quantification Kit (Tiangen, PA115-02). […]
The concentration of total protein in the cell lysate was determined by BCA. […] After the blocking, the PVDF membrane was incubated with an SOS1 primary antibody (Abcam, ab140621) at 4° C. overnight, washed with a TBST buffer (2.4 g of Tris, 8.8 g of NaCl, 1.5 mL of Tween 20, with pH adjusted to 7.4, with the volume brought to 1 L) for 30 min (10 min/time), incubated with a secondary antibody (Abcam, ab205718) at room temperature for 2 h, washed with a TBST buffer for 30 min (10 min/time), and finally incubated with Clarity Western ECL Substrate (BIO-RAD, 170-5061) for 5 min for luminescence and color development, and a chemiluminescence imaging system (Clinx, ChemiScope 6200 Touch) was used for color development and protein mapping. […] The gray correction value for each sample was calculated by the formula: gray correction value=(gray value of target protein/gray value of corresponding internal reference)×103. Then the degradation rate was calculated by comparing the gray correction value with the gray correction value of the control group. […]
(In general: Immunoblotting shows a protein as a band on a membrane.)

By DC50 is commonly meant the midpoint of the concentration-degradation curve. The term Dmax denotes the largest share of the target that was removed. As to `COc1cc2nc(C)nc(N[C@H](C)c3cc(-c4c(Cl)cccc4CN(C)C)cs3)c2cc1[C@H]1CC[C@H](C(=O)N2CCN(CC3CCC4(CC3)CCN(C(=O)c3ccc(Cl)c(N5CCC(=O)NC5=O)c3)CC4)CC2)CC1` [Example 1, 1-(2-chloro-5-(9-((4-((1R,4R)-4-(4-(((R)-1-(4-(2-chloro-6-((dimethylamino)methyl)phenyl)thien-2-yl)ethyl)amino)-7-methoxy-2-methylquinazolin-6-yl)cyclohexane-1-carbonyl)piperazin-1-yl)methyl)-3-azaspiro[5.5]undecane-3-carbonyl)phenyl)dihydropyrimidine-2,4(1H,3H)-dione], the DC50 is at most 50 nM and the Dmax was in the range of 80 to 100%.
The like results for `COc1cc2nc(C)nc(N[C@H](C)c3cc(-c4c(Cl)cccc4CN(C)C)cs3)c2cc1[C@H]1CC[C@H](C(=O)N2CCC(CCOCC3CCN(C(=O)c4ccc(Cl)c(N5CCC(=O)NC5=O)c4)CC3)CC2)CC1` [Example 5, 1-(2-chloro-5-(4-((2-(1-((1R,4R)-4-(4-(((R)-1-(4-(2-chloro-6-((dimethylamino)methyl)phenyl)thien-2-yl)ethyl)amino)-7-methoxy-2-methylquinazolin-6-yl)cyclohexane-1-carbonyl)piperidin-4-yl)ethoxy)methyl)piperidine-1-carbonyl)phenyl)dihydropyrimidine-2,4(1H,3H)-dione] were, in that order, at most 50 nM and 80 to 100%.
